# Data as given in patent publication US20230167073A1 (Teijin Pharma Limited, priority 2020, published 2023).
# Biological target: T1, Human TRPC6 (Homo sapiens, UniProt Q9Y210)
# T1 construct: expressed in transfected cells
# T1 sequence (Q9Y210 1-931): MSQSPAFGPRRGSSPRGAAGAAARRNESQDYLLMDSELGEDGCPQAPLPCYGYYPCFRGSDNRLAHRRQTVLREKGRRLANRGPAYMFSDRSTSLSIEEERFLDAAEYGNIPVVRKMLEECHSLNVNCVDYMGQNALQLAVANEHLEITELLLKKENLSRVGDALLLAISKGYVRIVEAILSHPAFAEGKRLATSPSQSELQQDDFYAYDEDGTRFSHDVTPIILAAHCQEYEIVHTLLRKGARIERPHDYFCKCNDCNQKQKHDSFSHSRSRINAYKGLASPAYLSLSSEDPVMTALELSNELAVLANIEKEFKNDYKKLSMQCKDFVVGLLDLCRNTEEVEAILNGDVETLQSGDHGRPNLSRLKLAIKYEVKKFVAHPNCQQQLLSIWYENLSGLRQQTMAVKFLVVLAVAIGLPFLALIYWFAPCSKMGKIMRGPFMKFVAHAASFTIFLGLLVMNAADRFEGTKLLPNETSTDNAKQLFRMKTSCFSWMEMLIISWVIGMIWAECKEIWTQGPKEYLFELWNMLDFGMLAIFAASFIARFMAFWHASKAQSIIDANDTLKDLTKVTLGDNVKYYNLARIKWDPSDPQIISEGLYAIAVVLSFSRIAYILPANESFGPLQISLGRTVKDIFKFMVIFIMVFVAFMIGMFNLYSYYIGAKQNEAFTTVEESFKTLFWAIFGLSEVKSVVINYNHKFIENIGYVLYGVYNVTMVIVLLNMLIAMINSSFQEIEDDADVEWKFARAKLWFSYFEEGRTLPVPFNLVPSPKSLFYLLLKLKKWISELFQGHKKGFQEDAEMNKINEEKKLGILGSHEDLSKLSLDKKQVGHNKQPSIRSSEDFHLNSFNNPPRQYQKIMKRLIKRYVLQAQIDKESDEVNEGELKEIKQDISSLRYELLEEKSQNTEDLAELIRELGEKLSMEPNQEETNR
# Experiment: Evaluation of TRPC6 channel inhibitory activity (1), FLIPR Calcium 5 Assay Kit, OAG stimulation (Compound Nos. 1-1293)
# Assay type: cell-based
# Conditions: Human TRPC6 stably-expressing cells, OAG 30 μM, FLIPR Calcium 5 Assay Kit; read-out: Inhibitory activity (pIC50 class) (converted)
# Procedure, shortened: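 TRPC6 (human) stable cells, 24 h culture; Ca5 no-wash dye + probenecid 30 min; cpd 20 min; OAG 30 μM final; ΔF (pre-cpd min to post-OAG max); 0%/100% = no cpd / no cpd + no OAG; 4PL → pIC50, binned +/++/+++.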
row,IC50 [nM],Structure (SMILES)
1,< 10,"Cn1nc(C(F)(F)C(F)(F)F)cc1Oc1cc(C#N)ccc1-c1ncc(CCN)cn1 [compound 376, 4-[5-(2-aminoethyl)pyrimidin-2-yl]-3-[2-methyl-5-(1,1,2,2,2-pentafluoroethyl)pyrazol-3-yl]oxybenzonitrile]"
2,10 to 1000,"Cn1nc(-c2ccc(Cl)cc2)cc1Oc1cc(C#N)ccc1-c1ccc([C@@H](O)CN)cn1 [compound 377, 4-[5-[(1R)-2-amino-1-hydroxyethyl]pyridin-2-yl]-3-[5-(4-chlorophenyl)-2-methylpyrazol-3-yl]oxybenzonitrile]"
3,< 10,"Cc1ccccc1-c1cc(Oc2cc(C#N)ccc2-c2ccc([C@@H](O)CN)cn2)n(C)n1 [compound 378, 4-[5-[(1R)-2-amino-1-hydroxyethyl]pyridin-2-yl]-3-[2-methyl-5-(2-methylphenyl)pyrazol-3-yl]oxybenzonitrile]"
4,< 10,"N#Cc1ccc(-c2ncc(CCN)cn2)c(Oc2cc(C3CC3)nn2CC(F)(F)F)c1 [compound 379, 4-[5-(2-aminoethyl)pyrimidin-2-yl]-3-[5-cyclopropyl-2-(2,2,2-trifluoroethyl)pyrazol-3-yl]oxybenzonitrile]"
5,10 to 1000,"CC(C)n1nc(C2CC2)cc1Oc1cc(C#N)ccc1-c1ncc(CCN)cn1 [compound 380, 4-[5-(2-aminoethyl)pyrimidin-2-yl]-3-(5-cyclopropyl-2-propan-2-ylpyrazol-3-yl)oxybenzonitrile]"
6,< 10,"CC(C)n1nc(-c2ccccc2)cc1Oc1cc(C#N)ccc1-c1ncc(CCN)cn1 [compound 381, 4-[5-(2-aminoethyl)pyrimidin-2-yl]-3-(5-phenyl-2-propan-2-ylpyrazol-3-yl)oxybenzonitrile]"
7,< 10,"CC(C)n1nc(C2CC2)cc1Oc1cc(C#N)ccc1-c1ccc([C@@H](O)CN)cn1 [compound 382, 4-[5-[(1R)-2-amino-1-hydroxyethyl]pyridin-2-yl]-3-(5-cyclopropyl-2-propan-2-ylpyrazol-3-yl)oxybenzonitrile]"
8,< 10,"CC(C)n1nc(-c2ccccc2)cc1Oc1cc(C#N)ccc1-c1ccc([C@@H](O)CN)cn1 [compound 383, 4-[5-[(1R)-2-amino-1-hydroxyethyl]pyridin-2-yl]-3-(5-phenyl-2-propan-2-ylpyrazol-3-yl)oxybenzonitrile]"
9,< 10,"Cn1nc(C(F)F)cc1Oc1cc(C#N)ccc1-c1ncc(CCN)cn1 [compound 384, 4-[5-(2-aminoethyl)pyrimidin-2-yl]-3-[5-(difluoromethyl)-2-methylpyrazol-3-yl]oxybenzonitrile]"
10,10 to 1000,"Cn1nc(C2CC2)cc1Oc1cc(C#N)ccc1-c1ncc(OCCN)cn1 [compound 385, 4-[5-(2-aminoethoxy)pyrimidin-2-yl]-3-(5-cyclopropyl-2-methylpyrazol-3-yl)oxybenzonitrile]"
11,10 to 1000,"CCc1cc(Oc2cc(C#N)ccc2-c2ncc(OCCN)cn2)n(C)n1 [compound 386, 4-[5-(2-aminoethoxy)pyrimidin-2-yl]-3-(5-ethyl-2-methylpyrazol-3-yl)oxybenzonitrile]"
12,10 to 1000,"Cc1cc(Oc2cc(C#N)ccc2-c2ncc(OCCN)cn2)cc(N2CCOCC2)n1 [compound 387, 4-[5-(2-aminoethoxy)pyrimidin-2-yl]-3-(2-methyl-6-morpholin-4-ylpyridin-4-yl)oxybenzonitrile]"
13,< 10,"Cc1cc(Oc2cc(C#N)ccc2-c2cnc(CCN)cn2)cc(N2CCOCC2)n1 [compound 388, 4-[5-(2-aminoethyl)pyrazin-2-yl]-3-(2-methyl-6-morpholin-4-ylpyridin-4-yl)oxybenzonitrile]"
14,10 to 1000,"Cn1nc(C2CCOCC2)cc1Oc1cc(C#N)ccc1-c1cnc(CCN)cn1 [compound 389, 4-[5-(2-aminoethyl)pyrazin-2-yl]-3-[2-methyl-5-(oxan-4-yl)pyrazol-3-yl]oxybenzonitrile]"
15,< 10,"Cn1nc(-c2nccs2)cc1Oc1cc(C#N)ccc1-c1ccc(CCN)cn1 [compound 390, 4-[5-(2-aminoethyl)pyridin-2-yl]-3-[2-methyl-5-(1,3-thiazol-2-yl)pyrazol-3-yl]oxybenzonitrile]"
16,< 10,"Cn1nc(-c2nccs2)cc1Oc1cc(C#N)ccc1-c1ncc(CCN)cn1 [compound 391, 4-[5-(2-aminoethyl)pyrimidin-2-yl]-3-[2-methyl-5-(1,3-thiazol-2-yl)pyrazol-3-yl]oxybenzonitrile]"

row,IC50 [nM],Structure (SMILES)
1,< 10,"Cn1nc(C2CCCC2)cc1Oc1cc(C#N)ccc1-c1ccc([C@H](O)CN)cn1 [compound 392, 4-[5-[(1S)-2-amino-1-hydroxyethyl]pyridin-2-yl]-3-(5-cyclopentyl-2-methylpyrazol-3-yl)oxybenzonitrile]"
2,< 10,"Cn1nc(C2CCCC2)cc1Oc1cc(C#N)ccc1-c1ncc(CCN)cn1 [compound 393, 4-[5-(2-aminoethyl)pyrimidin-2-yl]-3-(5-cyclopentyl-2-methylpyrazol-3-yl)oxybenzonitrile]"
3,< 10,"Cn1nc(-c2ccccn2)cc1Oc1cc(C#N)ccc1-c1ncc(CN)cn1 [compound 394, 4-[5-(aminomethyl)pyrimidin-2-yl]-3-(2-methyl-5-pyridin-2-ylpyrazol-3-yl)oxybenzonitrile]"
4,10 to 1000,"Cn1nc(-c2ccccn2)cc1Oc1cc(C#N)ccc1-c1ccc(C(C)(C)N)cn1 [compound 395, 4-[5-(2-aminopropan-2-yl)pyridin-2-yl]-3-(2-methyl-5-pyridin-2-ylpyrazol-3-yl)oxybenzonitrile]"
5,< 10,"CC(N)c1ccc(-c2ccc(C#N)cc2Oc2cc(-c3ccccn3)nn2C)nc1 (stereo not shown) [compound 396, 4-[5-(1-aminoethyl)pyridin-2-yl]-3-(2-methyl-5-pyridin-2-ylpyrazol-3-yl)oxybenzonitrile]"
6,10 to 1000,"Cc1cc(Oc2cc(C#N)ccc2-c2ccc(C(C)(C)N)cn2)cc(N2CCOCC2)n1 [compound 397, 4-[5-(2-aminopropan-2-yl)pyridin-2-yl]-3-(2-methyl-6-morpholin-4-ylpyridin-4-yl)oxybenzonitrile]"
7,< 10,"Cc1cc(Oc2cc(C#N)ccc2-c2ccc(C(C)N)cn2)cc(N2CCOCC2)n1 (stereo not shown) [compound 398, 4-[5-(1-aminoethyl)pyridin-2-yl]-3-(2-methyl-6-morpholin-4-ylpyridin-4-yl)oxybenzonitrile]"
8,< 10,"CCOc1cc(Oc2cc(C#N)ccc2-c2ccc([C@H](O)CN)cn2)n(C)n1 [compound 399, 4-[5-[(1S)-2-amino-1-hydroxyethyl]pyridin-2-yl]-3-(5-ethoxy-2-methylpyrazol-3-yl)oxybenzonitrile]"
9,10 to 1000,"Cn1nc(C2CC2)cc1Oc1cc(C#N)ccc1-c1ccc(C(C)(C)N)cn1 [compound 400, 4-[5-(2-aminopropan-2-yl)pyridin-2-yl]-3-(5-cyclopropyl-2-methylpyrazol-3-yl)oxybenzonitrile]"
10,< 10,"CC(N)c1ccc(-c2ccc(C#N)cc2Oc2cc(C3CC3)nn2C)nc1 (stereo not shown) [compound 401, 4-[5-(1-aminoethyl)pyridin-2-yl]-3-(5-cyclopropyl-2-methylpyrazol-3-yl)oxybenzonitrile]"
11,< 10,"Cn1nc(-c2cccc(F)c2)cc1Oc1cc(C#N)ccc1-c1ncc(CCN)cn1 [compound 402, 4-[5-(2-aminoethyl)pyrimidin-2-yl]-3-[5-(3-fluorophenyl)-2-methylpyrazol-3-yl]oxybenzonitrile]"
12,< 10,"Cn1nc(-c2cccc(F)c2)cc1Oc1cc(C#N)ccc1-c1ccc([C@H](O)CN)cn1 [compound 403, 4-[5-[(1S)-2-amino-1-hydroxyethyl]pyridin-2-yl]-3-[5-(3-fluorophenyl)-2-methylpyrazol-3-yl]oxybenzonitrile]"
13,< 10,"Cn1nc(C(C)(C)C)cc1Oc1cc(C#N)ccc1-c1ccc([C@H](O)CN)cn1 [compound 405, 4-[5-[(1S)-2-amino-1-hydroxyethyl]pyridin-2-yl]-3-(5-tert-butyl-2-methylpyrazol-3-yl)oxybenzonitrile]"
14,< 10,"Cn1nc(C(C)(C)C)cc1Oc1cc(C#N)ccc1-c1ncc([C@H](O)CN)cn1 [compound 406, 4-[5-[(1S)-2-amino-1-hydroxyethyl]pyrimidin-2-yl]-3-(5-tert-butyl-2-methylpyrazol-3-yl)oxybenzonitrile]"
15,< 10,"CC(C)n1nc(C2CC2)cc1Oc1cc(C#N)ccc1-c1ccc([C@H](O)CN)cn1 [compound 407, 4-[5-[(1S)-2-amino-1-hydroxyethyl]pyridin-2-yl]-3-(5-cyclopropyl-2-propan-2-ylpyrazol-3-yl)oxybenzonitrile]"
